Consider four molecules from ChEMBL document CHEMBL1149067, “Ochrindoles A-D: new bis-indolyl benzenoids from the sclerotia of Aspergillus ochraceus NRRL 3519” (J Nat Prod, 1994).

One data set concerns Helicoverpa zea. In words: Toxicity against Helicoverpa zea larvae assessed as weight gain relative to control. In kind it is organism-based. Conditions: in vivo.
In the next data set the test system is Carpophilus. The experiment in a line: Toxicity against Carpophilus hemipterus assessed as feeding reduction at 200 ppm relative to control. Details: scale not given: the % may be the effect or the level left. In kind it is organism-based. To be noted: in vivo.
Another data set has as its system Bacillus subtilis. The experiment in a line: Antimicrobial activity against Bacillus subtilis at 100 ug/disk by standard disk assay. In kind it is functional. To be noted: read-out: IZ.

In the case of `COc1c(CC=C(C)C)c(-c2c[nH]c3ccccc23)c(OC)c(O)c1-c1c[nH]c2ccccc12` [OCHRINDOLE A], the Activity stood at 30% in the data set on Helicoverpa zea and 20% in the data set on Carpophilus. Also, the zone of inhibition at 100 µg/disc with Bacillus subtilis was determined as 15 mm.

Consider `COc1c(C/C=C(\C)CO)c(-c2c[nH]c3ccccc23)c(OC)c(O)c1-c1c[nH]c2ccccc12` [OCHRINDOLE B], for which the zone of inhibition at 100 µg/disc with Bacillus subtilis worked out at 15 mm.

In the case of `COc1c(CC=C(C)C)c(-c2c[nH]c3ccccc23)c(O)c(O)c1-c1c[nH]c2ccccc12` [OCHRINDOLE C], the zone of inhibition at 100 µg/disc in the data set on Bacillus subtilis was determined as 15 mm.

With `CC(C)=CCC1=C(c2c[nH]c3ccccc23)C(=O)C(O)=C(c2c[nH]c3ccccc23)C1=O` [OCHRINDOLE D], the zone of inhibition at 100 µg/disc with Bacillus subtilis was determined as 15 mm.
